The values below come from patent US20260176289A1, “SMALL MOLECULE INHIBITORS OF KRAS PROTEINS” (Merck Sharp & Dohme LLC, priority 2022, published 2026).

The structures appear in SMILES notation. Where two headings read alike, the source gives them in different places.

The subject of one test is MKN-1 cells. Nature of the test: Cellular phospho-ERK assay, MKN-1 cells (amplified wild-type KRAS). Type of test: cell-based. As to conditions: Homo sapiens, read-out: MKN1 pERK IC50. In a few lines: (§1)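 Readout: p-ERK/total ERK ratio measured by Alpha SureFire Ultra multiplex in lysates after 2 h compound exposure (37 °C, 5% CO2). Dosing ran 10 points, 1:3 dilutions, highest final concentration 30 μM. IC50 values derived by four-parameter logistic regression.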

The subject of another test is SW620 cells. Put plainly: Cellular phospho-ERK assay, SW620 cells (homozygous KRAS-G12V). It is filed as cell-based. The note with it: Homo sapiens, read-out: SW620 pERK IC50. The gist of the method: as §1
For another test, the target named is KRAS-G13D (Homo sapiens, UniProt P01116, G13D). Put plainly: SOS-catalyzed nucleotide exchange assay (Procedure A, TR-FRET), KRAS-G13D. Type of test: biochemical. As to conditions: nucleotide exchange, Procedure A; read-out: KRAS G13D GNE IC50.
Chain of KRAS-G13D (P01116 with tags, fused parts or gaps isoform P01116-2 G13D): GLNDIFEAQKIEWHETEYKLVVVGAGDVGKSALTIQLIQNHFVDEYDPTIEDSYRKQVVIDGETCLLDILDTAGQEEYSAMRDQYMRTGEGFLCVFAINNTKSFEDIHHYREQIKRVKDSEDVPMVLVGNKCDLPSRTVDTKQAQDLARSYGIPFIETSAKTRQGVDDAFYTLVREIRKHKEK
Test [1] has as its target KRAS-G12C (C51S/C80L/C118S) (Homo sapiens, UniProt P01116, C118S/C51S/C80L/G12C). Nature of the test: SOS-catalyzed nucleotide exchange assay (Procedure A, TR-FRET), KRAS-G12C. The note with it: nucleotide exchange, Procedure A; read-out: KRAS G12C GNE IC50. Type of test: biochemical. The gist of the method: (§2)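 RAS (G12C carries C51S/C80L/C118S) loaded with Bodipy-GDP, complexed with Tb-streptavidin; cpd 60 min RT; + SOS/3 mM GTP. G12C 3/40 nM, WT 1/40, NRAS 1.25/40 nM RAS/SOS, 60 min; G12V 1.25/160 nM, 90 min. Normalized to DMSO and saturating inhibitor; 4PL fit.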
(In TR-FRET formats the signal depends on donor and acceptor labels being close together.)

The next test addresses KRAS-G12V (Homo sapiens, UniProt P01116, G12V). Put plainly: SOS-catalyzed nucleotide exchange assay (Procedure A, TR-FRET), KRAS-G12V. Type of test: biochemical. As to conditions: nucleotide exchange, read-out: KRAS G12V GNE IC50. The gist of the method:
as §2

For the next test, the system named is AsPC-1 cells. Put plainly: Cellular phospho-ERK assay, AsPC-1 cells (homozygous KRAS-G12D). Type of test: cell-based. As to conditions: Homo sapiens, ASPC1, 2 h, read-out: AsPC1 pERK IC50. The gist of the method: as §1
The next test concerns the target KRAS-WT (Homo sapiens, UniProt P01116). Nature of the test: SOS-catalyzed nucleotide exchange assay (Procedure A, TR-FRET), KRAS-WT. Type of test: biochemical. As to conditions: nucleotide exchange, read-out: KRAS WT GNE IC50. In a few lines:
as §2

The target of the next test is HRAS (Homo sapiens, UniProt P01112). Put plainly: SOS-catalyzed nucleotide exchange assay (Procedure A, TR-FRET), HRAS. Type of test: biochemical. The note with it: read-out: HRAS GNE IC50. The text has this:
Procedure for SOS-Catalyzed Nucleotide Exchange Assay for KRAS-WT, G12C/D/V, G13D, HRAS, and NRAS (Procedure A)
Recombinant KRAS-G12C protein used in this assay has an additional triple mutation (C51S/C80L/C118S). Whereas KRAS-WT, G12D/V, G13D, HRAS and NRAS are in context of their WT protein sequence background. Specifically, the SOS-catalyzed nucleotide exchange assay utilizes a preformed TR-FRET complex containing a specific biotinylated RAS protein (KRAS-WT, G12C/V/D, G13D, HRAS, NRAS; described above) with Bodipy-GDP, and Terbium-streptavidin. Compounds are preincubated with this complex for 60 minutes. Subsequently, recombinant human SOS protein and unlabeled GTP are added to initiate the exchange reaction. Small molecule inhibitors stabilize the Bodipy-GDP complex whereas the untreated protein rapidly exchanges Bodipy-GDP for unlabeled GTP resulting in reduced TR-FRET signal.
To assemble the preformed TR-FRET complexes, each biotinylated RAS protein is diluted to 2 μM in an EDTA Buffer (20 mM HEPES pH 7.5, 50 mM sodium chloride, 10 mM EDTA, and 0.01% Tween) and incubated at room temperature for one hour. This mixture is then further diluted to 90 nM in an Assay Buffer (20 mM HEPES pH 7.5, 150 mM sodium chloride, 10 mM magnesium chloride, and 0.005% Tween) containing 15 nM of Terbium-Streptavidin (Invitrogen, catalog #PV3577) and 900 nM of Bodipy-GDP (Invitrogen, catalog #G22360) and incubated at room temperature for six hours. It should be noted that this preformed TR-FRET complex for each of the RAS protein were made ahead of time, aliquoted and stored at −80° C. until the day of the experiment.
Each test compound (10 mM stock in DMSO) is diluted in DMSO to make a final-10-point, 3-fold dilution and is acoustically dispensed into a 384-well assay plate (Corning, catalog #3820) using an Echo 550 (Labcyte). Each well of the assay plate receives 3 μL of a specific 3×RAS preformed TR-FRET complex and 3 μL of Assay Buffer and is incubated at room temperature for 60 minutes (preincubation time). Each well then receives 3 μL of 3×recombinant human SOS protein and GTP (Sigma, G8877) in Assay Buffer and is incubated at room temperature for 30 minutes (G13D), 60 minutes (KRAS WT/G12C/D, H/NRAS) or 90 minutes for G12V. The final reaction in each well of 9 μL consists of 3 mM GTP, specific Ras and SOS proteins in the following concentrations: KRAS-G12C/SOS=3 nM/40 nM, KRAS-WT and G12D/SOS=1 nM/40 nM, KRAS-G12V/SOS=1.25 nM/160 nM. KRAS-G13D/SOS=1.25 nM/0 nM, HRAS and NRAS=1.25 nM/40 nM.
The time-resolved fluorescence resonance energy transfer (TR-FRET) signal is measured on an Envision (PerkinElmer) plate reader: Excitation filter=340 nm; emission 1=495 nm; emission2=520 nm; dichroic mirror=D400/D505; delay time=[…]. The signal of each well is determined as the ratio of the emission at 520 nm to that at 495 nm. Percent effect of each well is determined after normalization to control wells containing DMSO (no effect) or a saturating concentration of inhibitor (max effect). The apparent effect as a function of compound concentration is fit to a four-parameter logistic equation.

Another test deals with KRAS-G12D (Homo sapiens, UniProt P01116, G12D). Nature of the test: SOS-catalyzed nucleotide exchange assay (Procedure A, TR-FRET), KRAS-G12D. Type of test: biochemical. As to conditions: nucleotide exchange, read-out: KRAS G12D GNE IC50. In a few lines: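 Signal ratio (520/495 nm, excitation 340 nm) reports Bodipy-GDP retention on biotinylated RAS after SOS-catalyzed exchange with 3 mM GTP. SOS was 40 nM, except 160 nM for G12V. Room-temperature exchange lasted 60 min (90 min for G12V), following a 60 min compound preincubation.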
Chain of KRAS-G12D (P01116 with tags, fused parts or gaps isoform P01116-2 G12D): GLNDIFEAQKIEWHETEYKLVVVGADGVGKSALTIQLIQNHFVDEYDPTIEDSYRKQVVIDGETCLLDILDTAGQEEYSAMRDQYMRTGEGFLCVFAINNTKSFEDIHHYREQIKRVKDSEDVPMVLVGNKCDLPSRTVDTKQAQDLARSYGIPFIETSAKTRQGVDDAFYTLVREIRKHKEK

Setting [2] is: SW-620, 2 hours compound incubation.

Chain of KRAS-WT (P01116 with tags, fused parts or gaps isoform P01116-2): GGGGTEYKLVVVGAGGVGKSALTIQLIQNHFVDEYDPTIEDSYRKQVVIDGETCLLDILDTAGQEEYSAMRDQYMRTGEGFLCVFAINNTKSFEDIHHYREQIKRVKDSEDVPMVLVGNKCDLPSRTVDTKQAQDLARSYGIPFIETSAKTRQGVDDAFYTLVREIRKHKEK
Chain of KRAS-G12C (C51S/C80L/C118S) (P01116 with tags, fused parts or gaps isoform P01116-2 G12C/C51S/C80L/C118S): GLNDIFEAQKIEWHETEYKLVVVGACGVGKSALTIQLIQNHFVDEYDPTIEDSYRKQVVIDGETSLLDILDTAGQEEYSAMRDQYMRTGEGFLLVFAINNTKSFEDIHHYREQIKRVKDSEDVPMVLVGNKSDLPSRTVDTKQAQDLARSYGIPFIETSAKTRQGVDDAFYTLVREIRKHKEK
Chain of KRAS-G12V (P01116 with tags, fused parts or gaps isoform P01116-2 G12V): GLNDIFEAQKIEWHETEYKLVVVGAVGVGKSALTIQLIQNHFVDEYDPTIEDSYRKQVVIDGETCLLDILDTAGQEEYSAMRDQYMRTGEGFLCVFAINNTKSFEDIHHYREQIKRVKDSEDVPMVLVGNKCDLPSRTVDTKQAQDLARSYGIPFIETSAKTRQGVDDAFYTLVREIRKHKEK
Chain of HRAS (P01112 with tags, fused parts or gaps): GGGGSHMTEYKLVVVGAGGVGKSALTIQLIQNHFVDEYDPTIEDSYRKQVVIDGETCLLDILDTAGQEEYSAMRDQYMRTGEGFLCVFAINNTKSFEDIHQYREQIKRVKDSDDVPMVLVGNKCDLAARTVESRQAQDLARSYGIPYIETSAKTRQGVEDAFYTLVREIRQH

For `COC1(C)CN(C[C@@]2(COc3nc(N4CCOC[C@@](C)(O)C4)c4c(n3)sc3c(-c5c(C6(F)CC6)c(Cl)cc6[nH]ncc56)nccc34)CC2(F)F)C1` [Ex-240, (6S)-4-(8-(6-chloro-5-(1-fluorocyclopropyl)-1H-indazol-4-yl)-2-(((R)-2,2-difluoro-1-((3-methoxy-3-methylazetidin-1-yl)methyl)cyclopropyl)metho-xy)pyrido[4′,3′:4,5]thieno[2,3-d]pyrimidin-4-yl)-6-methyl-1,4-oxazepan-6-ol], the IC50 (usually the point on the concentration scale where inhibition reaches its midpoint) is 39.3 nM in the test with MKN-1 cells (2 hours compound incubation); 36.1 nM with SW620 cells (setting [2]); 45.8 nM on KRAS-G13D; 19.4 nM in test [1]; 10.4 nM at KRAS-G12V; 58.8 nM in the test on AsPC-1 cells (2 hours compound incubation). The values for the IC50 on KRAS-WT, on HRAS and on KRAS-G12D were 20 nM, 2220 nM and 4.31 nM, respectively.

Take `C[C@@]1(O)COCCN(c2nc(OC[C@@]34CCCN3C/C(=C\F)C4)nc3sc4c(-c5c(C6(F)CC6)c(Cl)cc6[nH]ncc56)nccc4c23)C1` [Ex-267, (6S)-4-(8-(6-chloro-5-(1-fluorocyclopropyl)-1H-indazol-4-yl)-2-(((S,Z)-2-(fluoromethylene)tetrahydro-1H-pyrrolizin-7a(5H)-yl)methoxy)pyrido[4′,3′:4,5]thieno[2,3-d]pyrimidin-4-yl)-6-methyl-1,4-oxazepan-6-ol]: the IC50 in the test with MKN-1 cells (2 hours compound incubation) amounted to 18.7 nM; with SW620 cells (setting [2]), 24 nM; on KRAS-G13D, 9.94 nM; in test [1], 23.5 nM; at KRAS-G12V, 8.11 nM; with AsPC-1 cells (2 hours compound incubation), 23.6 nM. Further, the IC50 stood at 5.56 nM on KRAS-WT, 4250 nM at HRAS and 3.26 nM at KRAS-G12D.

For `C[C@@]1(O)COCCN(c2nc(OC[C@]3(CN4CC5(CCCOC5)C4)CC3(F)F)nc3sc4c(-c5c(C6(F)CC6)c(Cl)cc6[nH]ncc56)nccc4c23)C1` [Ex-249, (6S)-4-(2-(((R)-1-((6-oxa-2-azaspiro[3.5]nonan-2-yl)methyl)-2,2-difluorocyclopropyl)methoxy)-8-(6-chloro-5-(1-fluorocyclopropyl)-1H-indazol-4-yl)pyrido[4′,3′:4,5]thieno[2,3-d]pyrimidin-4-yl)-6-methyl-1,4-oxazepan-6-ol], the IC50 in the test with MKN-1 cells (2 hours compound incubation) turned out to be 36.5 nM; in the test on SW620 cells (setting [2]), 51.2 nM; at KRAS-G13D, 21.3 nM; in [1], 11.4 nM; on KRAS-G12V, 15.5 nM; in the test with AsPC-1 cells (2 hours compound incubation), 73.8 nM. For the same compound, the IC50 at KRAS-WT was determined as 20.2 nM; at HRAS it was 943 nM; at KRAS-G12D, 2.69 nM.

`C[C@@]1(O)COCCN(c2nc(OC[C@]3(CN4CC(CF)C4)CC3(F)F)nc3sc4c(-c5c(C6(F)CC6)c(Cl)cc6[nH]ncc56)nccc4c23)C1` [Ex-266, (6S)-4-(8-(6-chloro-5-(1-fluorocyclopropyl)-1H-indazol-4-yl)-2-(((R)-2,2-difluoro-1-((3-(fluoromethyl)azetidin-1-yl)methyl)cyclopropyl)metho-xy)pyrido[4′,3′:4,5]thieno[2,3-d]pyrimidin-4-yl)-6-methyl-1,4-oxazepan-6-ol]: the IC50 in the test on MKN-1 cells (2 hours compound incubation) was found to be 47.3 nM; with SW620 cells (setting [2]), 39.2 nM; on KRAS-G13D it was 28.2 nM; in [1], 68.8 nM; at KRAS-G12V it was 21.6 nM; in the test on AsPC-1 cells (2 hours compound incubation) it was 89.7 nM. Besides, the IC50 worked out at 23.4 nM at KRAS-WT, 1290 nM at HRAS and 3.75 nM at KRAS-G12D.

For `CCc1c(F)ccc2cc3[nH]ncc3c(-c3nccc4c3sc3nc(OC[C@@]56CCCN5C[C@H](F)C6)nc(N5CCOC[C@@](C)(O)C5)c34)c12` [Ex-167, (6S)-4-(8-(5-ethyl-6-fluoro-1H-benzo[f]indazol-4-yl)-2-(((2R,7aS)-2-fluorotetrahydro-1H-pyrrolizin-7a(5H)-yl)methoxy)pyrido[4′,3′:4,5]thieno[2,3-d]pyrimidin-4-yl)-6-methyl-1,4-oxazepan-6-ol], the IC50 turned out to be 16.1 nM in the test with MKN-1 cells (2 hours compound incubation); 8.1 nM in the test on SW620 cells (setting [2]); 10.1 nM on KRAS-G13D; 23.3 nM in test [1]; 4.82 nM on KRAS-G12V; 23.4 nM in the test with AsPC-1 cells (2 hours compound incubation). For the same compound, the values for the IC50 at KRAS-WT, on HRAS and on KRAS-G12D were 5 nM, 10300 nM and 3.28 nM, respectively.

As for `C[C@@]1(O)COCCN(c2nc(OC[C@]3(CN4CC5(CCOC5)C4)CC3(F)F)nc3sc4c(-c5c(C6(F)CC6)c(Cl)cc6[nH]ncc56)nccc4c23)C1` [Ex-245, (6S)-4-(2-(((R)-1-((6-oxa-2-azaspiro[3.4]octan-2-yl)methyl)-2,2-difluorocyclopropyl)methoxy)-8-(6-chloro-5-(1-fluorocyclopropyl)-1H-indazol-4-yl)pyrido[4′,3′:4,5]thieno[2,3-d)pyrimidin-4-yl)-6-methyl-1,4-oxazepan-6-ol], the IC50 in the test with MKN-1 cells (2 hours compound incubation) amounted to 44 nM; with SW620 cells (setting [2]) it was 47.6 nM; on KRAS-G13D, 15.9 nM; in [1] it was 19.1 nM; at KRAS-G12V, 12.9 nM; in the test with AsPC-1 cells (2 hours compound incubation), 70.4 nM. Further, the IC50 at KRAS-WT came out at 18.5 nM; on HRAS it was 1290 nM; on KRAS-G12D it was 4.22 nM.

Consider `CCC1c2c(cc3[nH]ncc3c2-c2nccc3c2sc2nc(OC[C@@]45CCCN4C/C(=C\F)C5)nc(N4CCOC[C@@](C)(O)C4)c23)CC1(F)F` (single isomer, unassigned) [Ex-109], for which the IC50 in the test on MKN-1 cells (amplified wild-type KRAS, 2 hours) was 15.5 nM; in the test with SW620 cells (SW-620, KRAS-G12V, 2 hours) it was 18.8 nM; on KRAS-G13D, 4.73 nM; in test [1], 34.2 nM; on KRAS-G12V, 5.48 nM; in the test with AsPC-1 cells (KRAS-G12D, 2 hours), 38.4 nM. Moreover, the figures for the IC50 on KRAS-WT, at HRAS and at KRAS-G12D were 6.12 nM, 8060 nM and 4.33 nM, respectively.
